Data published in ChEMBL document CHEMBL1201862, “PubChem BioAssay data set” (2004).
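Following 48 hours of exposure in 96-well plates, responses at five concentrations were used to interpolate endpoints linearly. GI50 marks 50% less growth.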 The source made the active and inactive calls. No stated cut-off is given here; in the data, active = GI50 up to about 1.1 µM and inactive = higher.

Tests used:
Experiment in all cases: growth of human tumour cells (NCI), 48 h
DMS-273 = tested on: DMS-273
RXF 631 = tested on: RXF 631
M19-MEL = tested on: M19-MEL
SNB-78 = tested on: SNB-78
HOP-18 = tested on: HOP-18
DLD-1 = tested on: DLD-1
DMS-114 = tested on: DMS-114
PC-3 = tested on: PC-3
BT-549 = tested on: BT-549

Structure (SMILES)	GI50 (DMS-273)	GI50 (RXF 631)	GI50 (M19-MEL)	GI50 (SNB-78)	GI50 (HOP-18)	GI50 (DLD-1)	GI50 (DMS-114)	GI50 (PC-3)	GI50 (BT-549)
CC(C)c1cccc(C(C)C)c1NC1=CC(=O)C(=O)c2ccccc21	> 100 µM (inactive)	> 100 µM (inactive)	22.3 µM (inactive)	> 100 µM (inactive)	> 100 µM (inactive)	> 100 µM (inactive)			
NC(=O)c1ccccc1NC(=O)C(=O)Cc1nc2ccccc2nc1O	> 100 µM (inactive)	> 100 µM (inactive)	> 100 µM (inactive)			> 100 µM (inactive)	94.6 µM (inactive)		
CCOC(=O)C1=C(NC(C)(C)C)OC/C1=N\NC(=O)Cc1ccccc1	> 100 µM (inactive)	> 100 µM (inactive)	> 100 µM (inactive)	> 100 µM (inactive)	> 100 µM (inactive)	> 100 µM (inactive)	> 100 µM (inactive)		
C[N+](C)(C)CC(=O)N/N=C(\C(=O)NC1=C(Cl)C(=O)c2ccccc2C1=O)C(C#N)c1csc(-c2ccc([N+](=O)[O-])cc2)n1 (centres undefined)	> 100 µM (inactive)	> 100 µM (inactive)	> 100 µM (inactive)	> 100 µM (inactive)	> 100 µM (inactive)	> 100 µM (inactive)	> 100 µM (inactive)		
COC(=O)C(C(=O)C(=O)Nc1cccc([N+](=O)[O-])c1)c1nc2ccc([N+](=O)[O-])cc2nc1O (centres undefined)	> 100 µM (inactive)	> 100 µM (inactive)	> 100 µM (inactive)	> 100 µM (inactive)	> 100 µM (inactive)	> 100 µM (inactive)	> 100 µM (inactive)		
CC(=O)OC1C(=O)C(O)C(C)OC1O[C@@H]1C[C@@]2(C)[C@@H]3CC=C4[C@@H](C[C@H](O)C(=O)C4(C)C)[C@]3(C)C(=O)C[C@]2(C)[C@H]1[C@@](C)(O)C(=O)/C=C/C(C)(C)O (some centres undefined)	0.658 µM (active)	2.39 µM (inactive)	2.44 µM (inactive)	0.916 µM (active)	1.22 µM (inactive)	1.3 µM (inactive)			
Cc1ccc(NC(=O)CCC(=O)C2CC(=O)CCC2=O)cc1C (centres undefined)	> 100 µM (inactive)	> 100 µM (inactive)	> 100 µM (inactive)	> 100 µM (inactive)	> 100 µM (inactive)	> 100 µM (inactive)	> 100 µM (inactive)		
COc1cc([C@@H]2OC(=O)C3C2C(=O)O[C@H]3c2ccc(O)c(OC)c2)ccc1O (some centres undefined)	> 100 µM (inactive)	> 100 µM (inactive)	> 100 µM (inactive)	> 100 µM (inactive)	> 100 µM (inactive)	> 100 µM (inactive)	> 100 µM (inactive)		
O=C(Nc1ccc(C(F)(F)F)cc1[N+](=O)[O-])C(=O)C1NC(=S)NC1=O (centres undefined)	> 100 µM (inactive)	82.2 µM (inactive)	> 100 µM (inactive)	> 100 µM (inactive)	> 100 µM (inactive)	> 100 µM (inactive)	> 100 µM (inactive)		
O=C1c2ccc3c4ccccc4n(Cc4ccccc4)c3c2C(=O)N1c1ccccc1	12.4 µM (inactive)	14.5 µM (inactive)	17.3 µM (inactive)	27.7 µM (inactive)	12.1 µM (inactive)	17 µM (inactive)	17.9 µM (inactive)		
COC(=O)C(=O)C(C(=O)C(=O)Nc1cccc(C(C)=O)c1)c1nc2ccc([N+](=O)[O-])cc2nc1O (centres undefined)	> 100 µM (inactive)	> 100 µM (inactive)		> 100 µM (inactive)	> 100 µM (inactive)	> 100 µM (inactive)	> 100 µM (inactive)		
CN(/N=C/c1ccnc2ccccc12)c1c([N+](=O)[O-])cc([N+](=O)[O-])cc1[N+](=O)[O-]	> 100 µM (inactive)		> 100 µM (inactive)	67.3 µM (inactive)	> 100 µM (inactive)	37.4 µM (inactive)	37.9 µM (inactive)		
C[C@]12CCc3nonc3C1CC[C@@H]1C2CC[C@@]2(C)C1CC[C@@H]2O (some centres undefined)	> 100 µM (inactive)	> 100 µM (inactive)	> 100 µM (inactive)	> 100 µM (inactive)	> 100 µM (inactive)	> 100 µM (inactive)	> 100 µM (inactive)		
Clc1ccc(CNc2nc3ccccc3nc2-c2cccs2)c(Cl)c1	86.7 µM (inactive)	67.3 µM (inactive)	66.8 µM (inactive)	> 100 µM (inactive)	> 100 µM (inactive)				
C=C1C(=O)OC2/C=C(\C)C(O)/C=C\C(C)(O)CC(OC(=O)/C(C)=C/C)C12 (centres undefined)	16.7 µM (inactive)	38.2 µM (inactive)	17.5 µM (inactive)	34.2 µM (inactive)	> 74.8 µM (inactive)	13.2 µM (inactive)	> 48 µM (inactive)		
FC(F)(F)c1nc(Br)[nH]c1C(F)(F)F	> 100 µM (inactive)	61.4 µM (inactive)	> 100 µM (inactive)	> 100 µM (inactive)	28.8 µM (inactive)	> 100 µM (inactive)	40.2 µM (inactive)		
CCCCCCCCCCCCCCCCOP(=O)([O-])OCC[N+](C)(C)C [MILTEFOSINE]	6.92 µM (inactive)		15.6 µM (inactive)	47.6 µM (inactive)	39.4 µM (inactive)	18.9 µM (inactive)	32.6 µM (inactive)	1.56 µM (inactive)	5.35 µM (inactive)
CCCCCN(CCCCC)C(=O)[C@H](CCC(=O)OCc1ccccc1)NC(=O)c1cc2ccccc2[nH]1	> 100 µM (inactive)	> 100 µM (inactive)		> 100 µM (inactive)	> 100 µM (inactive)	> 100 µM (inactive)	> 100 µM (inactive)		
O=C(NCc1ccc2ccc3cccnc3c2n1)c1ccc[n+](Cc2ccccc2)c1	> 100 µM (inactive)	> 100 µM (inactive)	60.8 µM (inactive)		> 100 µM (inactive)	> 100 µM (inactive)	36.8 µM (inactive)		
